The values below come from patent publication US12265087B2, “Olfactory receptor as microglia marker and use thereof” (DAEGU GYEONGBUK INSTITUTE OF SCIENCE AND TECHNOLOGY, priority 2019, dated 2025).

One assay concerns the target T1, Olfr110 (Mus musculus, UniProt A2RT31).
T1 construct: Full-length odorant receptor genes from mouse and human genomic DNAs were amplified using appropriate primers; Lucy (N); Flag (N); Rho (N); expressed in transfected cells; host or cells: Hana3A cells, co-transfected with RTP1S, pCRELuc and pRL-SV40
T1 sequence (A2RT31 1-317): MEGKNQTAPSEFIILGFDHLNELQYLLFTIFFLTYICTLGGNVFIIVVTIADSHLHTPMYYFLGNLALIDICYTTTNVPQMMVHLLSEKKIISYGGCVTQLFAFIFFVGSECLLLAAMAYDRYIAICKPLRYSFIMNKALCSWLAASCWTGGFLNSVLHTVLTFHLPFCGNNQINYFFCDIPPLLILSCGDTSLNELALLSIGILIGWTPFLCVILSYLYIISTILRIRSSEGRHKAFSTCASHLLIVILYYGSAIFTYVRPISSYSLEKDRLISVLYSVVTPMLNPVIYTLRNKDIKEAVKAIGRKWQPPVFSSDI
Kind of assay: Luciferase assay in Hana3A cells transfected with Olfr110. The assay is classed as cell-based. The conditions noted are these: for binding to Olfr110: furan derivatives; for reactivity with Olfr110 (relative luciferase activity): Hana3A cells.

A further assay has as its system Olfr111. As to the kind of experiment: Luciferase assay in Hana3A cells transfected with Olfr111. The conditions noted are these: for binding to Olfr1111: furan derivatives; for reactivity with Olfr111 (relative luciferase activity): Hana3A cells. Type of assay: cell-based, mouse.
Assay [1] has as its system primary microglia. Kind of assay: ROS / superoxide generation in primary microglia. The conditions noted are these: for ROS generated with 2-PF co-treatment: Sup MOI 5 + 500 μM 2-PF, 2-EF 0, 100, 300, 500 μM; for ROS generation after 2-PF: inhibitor pretreatment, then 2-PF. Type of assay: cell-based, mouse. The method, then:
Superoxide concentrations were calculated by measuring the degree ofcytochrome c reduction using a VersaMax microplate reader (Babior et al., 1973). Microglia were cultured in a 96 well plate at a concentration of 1.0×10^5 cells/well, and the microglia were activated by a 10 μM ATP solution containing 2-PF and cytochrome c, or a solution in which Sup is mixed with cytochalasin B (5 μM; #C66762; Sigma Aldrich). The concentration of ROS was measured through a change in light absorption every minute for 25 minutes at 550 nm.
ROS levels were measured using 2′,7′-dichlorodihydrofluorescein diacetate (DCF-DA, #D6883; Sigma Aldrich) by a previously described method with minor modifications (Bae et al., 2001). More specifically, primary microglia were seeded in 24-well plates (5.0×10^5 cells/well) for 24 hours, and then treated with 10 μM DCF-DA at 37° C. for 30 minutes. One plate was treated with 2-PF, and the other one was not. The cells in each well were measured using a flow cytometer (FACS Accuri™ C6; BD Biosciences). MFI was measured as described above.

Assay [2] deals with primary microglia. As to the kind of experiment: Cytokine ELISA of primary microglia. The assay is classed as cell-based, mouse. Conditions: inhibitor pretreatment, then 2-PF. On the procedure: The levels of expression of cytokines Tnf, i16 and I11b secreted from microglia were measured according to the manufacturer's protocols. More specifically, the levels were measured by ELISA 24 hours after treatment with 2-PF or a cell supernatant. The ELISA kit was purchased from BD Biosciences (#DY410 for Tnf; #DY406 for I16; #DY401 for I11b).
(In general: An ELISA detects its analyte on a solid surface through an enzyme-linked reagent.)

The test system of assay [3] is primary microglia. As to the kind of experiment: Western blotting of phosphorylated signaling proteins in primary microglia. The assay is classed as cell-based, mouse. The conditions noted are these: inhibitor pre-cultivation, then 2-PF. On the procedure: Cells and tissue were prepared using the T-PER® reagent (#78510; Thermo Fisher Scientific) containing protease inhibitors (#04-693-116-001; Roche Molecular Diagnostics) and DMSF (Sigma-Aldrich), and then lysed using a MagNA lyser (Roche Molecular Diagnostics). A total protein extract was quantified by the Bradford assay. The samples were dissolved in 7.5% SDS-PAGE or 4-20% gradient mini-PROTEIN TGX Precast Gels (#456-1064; Bio-Rad Laboratories), and then blotted on nitrocellulose membranes (#10600002; GE Healthcare). Afterward, the membranes were blocked for 1 hour in 5% non-fat dry milk and TBST, 0.1% TWEEN® 20 (#P9416; Sigma-Aldrich), and Tris-buffered saline, and then incubated with primary antibodies at 4° C. overnight. The antibodies were as follows: Olfr110 (36 kDa; 1:1,000; #ab177327; Abcam), anti-rhodopsin (39 kDa; 1:1,000; #MABN15; Millipore), CREB (43 kDa; 1:1,000; #9197; Cell Signaling Technology), phospho-CREB (43 kDa; 1:1,000; #9198; Cell Signaling Technology), ERK (44 kDa; 1:1,000; #sc094; Santa Cruz), phospho-ERK (42, 44 kDa; 1:1,000; #sc-7383; Santa Cruz), phospho-Akt (60 kDa; 1:500; sc-293125; Santa Cruz), phospho-JNK (46, 54 kDa; 1:500; sc-6254; Santa Cruz), phosphor-p38 (38 kDa; 1:1,000; sc-7973; Santa Cruz), and beta-Actin (45 kDa; 1:10,000; #4967; Cell Signaling Technology). In addition, as isotype-matched horseradish peroxidase-conjugated secondary antibodies, anti-rabbit IgG (#711-035-152; Jackson ImmunoResearch) diluted 1:100,000, and anti-mouse IgG (#715-035-150; Jackson ImmunoResearch) diluted 1:40,000 in TBST were used at room temperature for 2 hours. Immunoreactive protein bands were obtained using SuperSignal™ West Pico Chemiluminescent Substrate (#34080; Thermo Fisher Scientific).
(A western blot detects proteins with antibodies after separation by electrophoresis.)

Assay [4] relates to Olfr920, Olfr1417 and Olfr99. The conditions noted are these: also react with MOCK.

Experimental for Olfr110: (§1) A Dual-Glo luciferase assay system (#E2940; Promega) was used for OR ligand screening. More specifically, Hana3A cells were seeded in white polystyrene 96-well plates (#353296; BD Biosciences) one day before transfection. pCRELuc (1 μg; #219076; Agilent Technologies), pRL-SV40 (1 μg; #E2231; Promega), RTP1S (1 μg), and OR (6 μg; or Mock) vectors were transfected for 24 hours in each plate. Analysis was performed using Lipofectamine 2000 (#11668-019; Thermo Fisher Scientific) according to the manufacturer's protocols. Transfected cells were stimulated at 37° C. for 4 hours with various concentrations of diluted odorants in a CD293 medium (#11913-019; Thermo Fisher Scientific). The activity of luciferase was normalized to that of Renilla luciferase. Luminescence was measured using a SpectraMax L microplate reader (Molecular Devices).
Experimental for Olfr111: as §1

For the compound `Cc1ccoc1C` [2,3-dimethylfuran], the “binding to Olfr110” value at Olfr110 was “do not bind”. Moreover, the “binding to Olfr1111” value in the assay with Olfr111 is “do not bind”.

In general, Kd refers to the constant that tells how readily two partners part at equilibrium. Consider `CCc1ccco1` [2-EF, 2-ethylfuran], for which, at Olfr110, the “mode of action at Olfr110” value is reported as “competitive inhibitor (antagonist)”. Also, the “2-PF activity on Olfr110 with co-treatment” value at Olfr110 (2-PF fixed at 300 μM, 2-EF 1 μM to 10 mM) was 2-PF activity decreases. For the same compound, the Kd at Olfr110 (2-PF fixed at 300 μM, 2-EF 1 μM to 10 mM, read-out: Kd (competitive activity against 2-PF)) was 120 µM. For the same compound, on Olfr110, the “binding to Olfr110” value is on record as “do not bind”. In addition, the “binding to Olfr1111” value in the assay on Olfr111 is “do not bind”. Further, the “amount of ROS generated by 100 MOI Sup” value in the assay on primary microglia [1] (2-EF pretreated at 0, 100, 300, 500 μM) was “diminished as the 2-EF level increases”. Besides, the “ROS generated with 2-PF co-treatment” value was “the higher the concentration of 2-EF added, the lower the concentration of the generated ROS” in the assay with primary microglia [1] and “reduced” with primary microglia [1] (listed as 2-ethylfuran).

With `CCCCc1ccco1` [2-butylfuran], on Olfr110, the “reactivity with Olfr110 (relative luciferase activity)” value is reported as “showed reactivity”. For the same compound, in the assay with Olfr111, the “reactivity with Olfr111 (relative luciferase activity)” value is reported as “showed reactivity”.

Regarding `CCCCCCCc1ccco1` [2-heptylfuran], the “binding to Olfr110” value at Olfr110 was “do not bind”. Moreover, the “binding to Olfr1111” value in the assay on Olfr111 is given as “do not bind”.

On to `CCCCCCc1ccco1` [2-hexylfuran], for which, at Olfr110, the “reactivity with Olfr110 (relative luciferase activity)” value is recorded as “showed reactivity” and the “binding to Olfr110” value is on record as “do not bind”. In addition, in the assay with Olfr111, the “reactivity with Olfr111 (relative luciferase activity)” value is reported as “showed reactivity” and the “binding to Olfr1111” value is on record as “do not bind”.

Regarding `Cc1ccco1` [2-methylfuran], the “binding to Olfr110” value at Olfr110 is reported as “do not bind”. Moreover, the “binding to Olfr1111” value with Olfr111 is recorded as “do not bind”.

As to `CCCc1ccco1` [2-propylfuran], the “reactivity with Olfr110 (relative luciferase activity)” value on Olfr110 was “showed reactivity”. Also, the “reactivity with Olfr111 (relative luciferase activity)” value with Olfr111 is listed as “showed reactivity”.

Regarding `CC(C)(C)c1ccco1` [2-t-butylfuran], the “reactivity with Olfr110 (relative luciferase activity)” value at Olfr110 is recorded as “showed reactivity”. In addition, in the assay with Olfr111, the “reactivity with Olfr111 (relative luciferase activity)” value was “showed reactivity”.

Take `O=S(=O)(NCCNC/C=C/c1ccc(Br)cc1)c1cccc2cnccc12` [H-89]: in the assay on primary microglia [2], the “Tnf and Il6 cytokine levels after 2-PF” value is “great decrease”.

Take `Nc1ncnc2c1ncn2C1CCCO1` (stereo not drawn) [SQ22536]: the “Tnf and Il6 cytokine levels after 2-PF” value in the assay with primary microglia [2] is listed as “great decrease”. Besides, the “CREB and ERK phosphorylation” value in the assay on primary microglia [3] was “greatly decreased”.

`COc1ccc2c(c1)CC[C@@H]1[C@@H]2CC[C@]2(C)[C@@H](NCCCCCCN3C(=O)C=CC3=O)CC[C@@H]12` [U73122, reference compound]: the “ROS generation after 2-PF” value in the assay with primary microglia [1] is “completely inhibited”. Moreover, the “Tnf and Il6 cytokine levels after 2-PF” value with primary microglia [2] is recorded as “relatively less decrease”.

Turning to `CCO` [ethanol], in assay [4], the “reactivity of the other three receptors” value was “non-specific reaction”.

As to `O=C1OC2(c3ccccc31)c1ccc(O)c(O)c1Oc1c2ccc(O)c1O` [gallein, reference compound], the “ROS generation after 2-PF” value in the assay with primary microglia [1] is recorded as “similarly inhibited”.

In the case of `COc1cccc(-c2cc(=O)c3ccccc3o2)c1N` [pd98059], in the assay on primary microglia [2], the “Tnf and Il6 cytokine levels after 2-PF” value is on record as “relatively less decrease”. In addition, the “CREB and ERK phosphorylation” value in the assay with primary microglia [3] is given as “greatly decreased”.
